Results as given in patent publication US12569452B2, “Ophthalmic compositions comprising F6H8” (NOVALIQ GMBH, priority 2017, dated 2026).

Assay: Ocular tissue distribution after single topical ocular dose of 14C-F6H8, liquid scintillation counting
Assay type: in vivo, Dutch Belted (pigmented) female rabbits
Settings: for Mean concentration of radioactivity, Conjunctiva (bulbar) / Mean concentration of radioactivity, Conjunctiva (palpebral) / Mean concentration of radioactivity, Cornea / Mean concentration of radioactivity, Lacrimal gland (accessory) / Mean concentration of radioactivity, Lacrimal gland (main) / Mean concentration of radioactivity, Meibomian glands / Mean concentration of radioactivity, Sclera (anterior) / Mean concentration of radioactivity, Tears: single topical ocular dose
Procedure: The study is conducted to assess the ocular tissue distribution after topical ocular administration of ^14C-1-Perfluorohexyloctane (F6H8, NovaTears®) to Dutch Belted (pigmented) female rabbits.
On the first day of dosing, 5.474 mL of ^14C—F6H8 is combined with 9.526 mL of F6H8. The dose formulation is magnetically stirred and appears to be a colorless solution. The dose formulation is separated into vials to provide one vial per day for dose administration and it is stored at approximately −20° C. One vial per day is thawed prior to dose administration. In between dose administrations, the vial is capped and stored at approximately 5° C. when not in use.
Animals are not fasted prior to dose administration. All animals receive single 35 μL-drops of the dose formulation in each eye, with the right eye dosed first. All collection times are based on the time of dosing of the second (left) eye for the last dose, as applicable.
After the dose is administered, the eye is allowed to close naturally. Each animal is then restrained for approximately 1 minute to prevent rubbing of the eyes.
Tears and Ocular Tissue Collection: Tears are collected from two animals per group per time point at 0.25, 0.5, 1, 2, 4, 8, and 24 hours post-dose following the single dose or the last dose of the multiple dose scheme. Tears are collected using Tear Flo Test (TFT) strips that were dye free. One strip of paper is used for each eye for each time point. Following collection, the tube containing the strip is placed on dry ice or stored at approximately −70° C. until analysed.
At the time of sacrifice, both eyes are enucleated and ocular tissues including Aqueous humour, Conjunctiva (bulbar), Conjunctiva (palpebral), Lacrimal gland (accessory), Lacrimal gland (main), Meibomian glands (tarsal plate), Choroid-Retinal pigmented epithelium (Choroid-RPE), Cornea, Iris-ciliary body (ICB), Retina, Sclera (anterior), Sclera (posterior), Vitreous humour are collected.
Radioanalysis: All samples are analyzed for radioactivity in a Model 2900TR liquid scintillation counter (Packard Instrument Company) for at least 5 minutes or 100,000 counts, utilizing Ultima Gold XR or Hionic Fluor scintillation cocktails (Perkin Elmer). Each sample is homogenized before radioanalysis, unless the entire sample is used for analysis. All samples are analyzed in duplicate if sample size allows.
For Conjunctiva (bulbar and palpebral), Cornea, Lacrimal gland (main), Meibomian glands, Retina, and Sclera (anterior and posterior), each sample is digested in 2M sodium hydroxide in ethanol (80:20, v:v) and maintained at room temperature or in an oven set no higher than 30° C. until dissolved. Scintillation cocktail is added, and the samples are shaken and analyzed directly by LSC.
For Lacrimal gland (accessory), each sample is digested in 2M sodium hydroxide in ethanol (80:20, v:v) and maintained at room temperature or in an oven set no higher than 30° C. until dissolved. The sample is homogenized by mixing and duplicate weighed aliquots are analyzed directly by LSC.
For Tears, at least 10 mL of Ultima Gold XR scintillation cocktail is added, and the samples are shaken and analyzed by LSC.
Single topical ocular administration, radioanalysis of ocular tissues: The rabbits received a single topical ocular administration in both eyes. The target dose level is 45.6 mg/eye (25 μCi/eye). Following the single topical ocular dose of 35 μl of ^14C—F6H8, two animals per time point are sacrificed at 0.25, 0.5, 1, 2, 4, 8, and 24 hours post-dose in a sparse sampling profile. Ocular tissues (including tears collected prior to sacrifice) are collected from all animals at sacrifice.

[1] = single dose, between 0.25 and 4 hours post-dose

^14C-1-Perfluorohexyloctane [^14C-F6H8]
Radioactivity in the iris-ciliary body and choroid-RPE (single dose): No radioactivity is detected
Radioactivity in the vitreous humour and retina (single dose): Low levels
Highest mean concentration, Meibomian glands [1]: 294000 ng equivalents ^14C—F6H8/g
Highest mean concentration, accessory lacrimal gland [1]: 4280 ng equivalents ^14C—F6H8/g
Highest mean concentration, anterior sclera [1]: 2270 ng equivalents ^14C—F6H8/g
Highest mean concentration, bulbar conjunctiva [1]: 5450 ng equivalents ^14C—F6H8/g
Highest mean concentration, cornea [1]: 8230 ng equivalents ^14C—F6H8/g
Highest mean concentration, main lacrimal gland [1]: 4130 ng equivalents ^14C—F6H8/g
Highest mean concentration, palpebral conjunctiva [1]: 14200 ng equivalents ^14C—F6H8/g
Highest mean concentration, tears [1]: 2390000 ng equivalents ^14C—F6H8/g
Mean concentration of radioactivity, Conjunctiva (bulbar) (0.25 h post-dose): 5450 ng Equivalents ^14C-F6H8/g
Mean concentration of radioactivity, Conjunctiva (palpebral) (0.25 h post-dose): 14200 ng Equivalents ^14C-F6H8/g
Mean concentration of radioactivity, Cornea (0.25 h post-dose): 2040 ng Equivalents ^14C-F6H8/g
Mean concentration of radioactivity, Lacrimal gland (accessory) (0.25 h post-dose): 577 ng Equivalents ^14C-F6H8/g
Mean concentration of radioactivity, Lacrimal gland (main) (0.25 h post-dose): 1670 ng Equivalents ^14C-F6H8/g
Mean concentration of radioactivity, Meibomian glands (0.25 h post-dose): 294000 ng Equivalents ^14C-F6H8/g
Mean concentration of radioactivity, Sclera (anterior) (0.25 h post-dose): 1140 ng Equivalents ^14C-F6H8/g
Mean concentration of radioactivity, Tears (0.25 h post-dose): 2390000 ng Equivalents ^14C-F6H8/g
Mean concentration of radioactivity, Conjunctiva (bulbar) (0.5 h post-dose): 3680 ng Equivalents ^14C-F6H8/g
Mean concentration of radioactivity, Conjunctiva (palpebral) (0.5 h post-dose): 5180 ng Equivalents ^14C-F6H8/g
Mean concentration of radioactivity, Cornea (0.5 h post-dose): 8230 ng Equivalents ^14C-F6H8/g
Mean concentration of radioactivity, Lacrimal gland (accessory) (0.5 h post-dose): 0.00 ng Equivalents ^14C-F6H8/g
Mean concentration of radioactivity, Lacrimal gland (main) (0.5 h post-dose): 2770 ng Equivalents ^14C-F6H8/g
Mean concentration of radioactivity, Meibomian glands (0.5 h post-dose): 102000 ng Equivalents ^14C-F6H8/g
Mean concentration of radioactivity, Sclera (anterior) (0.5 h post-dose): 2270 ng Equivalents ^14C-F6H8/g
Mean concentration of radioactivity, Tears (0.5 h post-dose): 995000 ng Equivalents ^14C-F6H8/g
Mean concentration of radioactivity, Conjunctiva (bulbar) (1 h post-dose): 3320 ng Equivalents ^14C-F6H8/g
Mean concentration of radioactivity, Conjunctiva (palpebral) (1 h post-dose): 5700 ng Equivalents ^14C-F6H8/g
Mean concentration of radioactivity, Cornea (1 h post-dose): 6110 ng Equivalents ^14C-F6H8/g
Mean concentration of radioactivity, Lacrimal gland (accessory) (1 h post-dose): 255 ng Equivalents ^14C-F6H8/g
Mean concentration of radioactivity, Lacrimal gland (main) (1 h post-dose): 641 ng Equivalents ^14C-F6H8/g
Mean concentration of radioactivity, Meibomian glands (1 h post-dose): 57600 ng Equivalents ^14C-F6H8/g
Mean concentration of radioactivity, Sclera (anterior) (1 h post-dose): 1300 ng Equivalents ^14C-F6H8/g
Mean concentration of radioactivity, Tears (1 h post-dose): 444000 ng Equivalents ^14C-F6H8/g
Mean concentration of radioactivity, Conjunctiva (bulbar) (2 h post-dose): 3050 ng Equivalents ^14C-F6H8/g
Mean concentration of radioactivity, Conjunctiva (palpebral) (2 h post-dose): 4230 ng Equivalents ^14C-F6H8/g
Mean concentration of radioactivity, Cornea (2 h post-dose): 3230 ng Equivalents ^14C-F6H8/g
Mean concentration of radioactivity, Lacrimal gland (accessory) (2 h post-dose): 1450 ng Equivalents ^14C-F6H8/g
Mean concentration of radioactivity, Lacrimal gland (main) (2 h post-dose): 1530 ng Equivalents ^14C-F6H8/g
Mean concentration of radioactivity, Meibomian glands (2 h post-dose): 69200 ng Equivalents ^14C-F6H8/g
Mean concentration of radioactivity, Sclera (anterior) (2 h post-dose): 767 ng Equivalents ^14C-F6H8/g
Mean concentration of radioactivity, Tears (2 h post-dose): 700000 ng Equivalents ^14C-F6H8/g
Mean concentration of radioactivity, Conjunctiva (bulbar) (4 h post-dose): 1610 ng Equivalents ^14C-F6H8/g
Mean concentration of radioactivity, Conjunctiva (palpebral) (4 h post-dose): 2500 ng Equivalents ^14C-F6H8/g
Mean concentration of radioactivity, Cornea (4 h post-dose): 4480 ng Equivalents ^14C-F6H8/g
Mean concentration of radioactivity, Lacrimal gland (accessory) (4 h post-dose): 4280 ng Equivalents ^14C-F6H8/g
Mean concentration of radioactivity, Lacrimal gland (main) (4 h post-dose): 4130 ng Equivalents ^14C-F6H8/g
Mean concentration of radioactivity, Meibomian glands (4 h post-dose): 29100 ng Equivalents ^14C-F6H8/g
Mean concentration of radioactivity, Sclera (anterior) (4 h post-dose): 1170 ng Equivalents ^14C-F6H8/g
Mean concentration of radioactivity, Tears (4 h post-dose): 207000 ng Equivalents ^14C-F6H8/g
Mean concentration of radioactivity, Conjunctiva (bulbar) (8 h post-dose): 1340 ng Equivalents ^14C-F6H8/g
Mean concentration of radioactivity, Conjunctiva (palpebral) (8 h post-dose): 1790 ng Equivalents ^14C-F6H8/g
Mean concentration of radioactivity, Cornea (8 h post-dose): 6080 ng Equivalents ^14C-F6H8/g
Mean concentration of radioactivity, Lacrimal gland (accessory) (8 h post-dose): 2110 ng Equivalents ^14C-F6H8/g
Mean concentration of radioactivity, Lacrimal gland (main) (8 h post-dose): 2120 ng Equivalents ^14C-F6H8/g
Mean concentration of radioactivity, Meibomian glands (8 h post-dose): 21100 ng Equivalents ^14C-F6H8/g
Mean concentration of radioactivity, Sclera (anterior) (8 h post-dose): 1330 ng Equivalents ^14C-F6H8/g
Mean concentration of radioactivity, Tears (8 h post-dose): 6660 ng Equivalents ^14C-F6H8/g
Mean concentration of radioactivity, Conjunctiva (bulbar) (24 h post-dose): 1090 ng Equivalents ^14C-F6H8/g
Mean concentration of radioactivity, Conjunctiva (palpebral) (24 h post-dose): 2270 ng Equivalents ^14C-F6H8/g
Mean concentration of radioactivity, Cornea (24 h post-dose): 2730 ng Equivalents ^14C-F6H8/g
Mean concentration of radioactivity, Lacrimal gland (accessory) (24 h post-dose): 1500 ng Equivalents ^14C-F6H8/g
Mean concentration of radioactivity, Lacrimal gland (main) (24 h post-dose): 1810 ng Equivalents ^14C-F6H8/g
Mean concentration of radioactivity, Meibomian glands (24 h post-dose): 14700 ng Equivalents ^14C-F6H8/g
Mean concentration of radioactivity, Sclera (anterior) (24 h post-dose): 611 ng Equivalents ^14C-F6H8/g
Mean concentration of radioactivity, Tears (24 h post-dose): 1300 ng Equivalents ^14C-F6H8/g
